One series addresses Cholinesterase (Equus caballus, UniProt P81908). In words: Inhibition of equine serum BuChE using BTCI as substrate preincubated for 30 mins followed by substrate addition measured after 30 mins by Ellman assay. On the technique in general: In Ellman's method for cholinesterases, released thiocholine reacts with DTNB.
Series [1] concerns the target T1, Acetylcholinesterase (Homo sapiens, UniProt P22303). In words: Mixed inhibition of human erythrocyte AChE at 0.05 to 0.4 uM using ATCI as substrate preincubated for 30 mins followed by substrate addition measured after 30 mins by Lineweaver-Burk plot analysis.
Series [2] in a line: Toxicity in Swiss albino mouse assessed as mortality at 677 to 2000 mg/kg, po for 14 days. It counts as organism-based. The following applies: in vivo, 336 h.
The nature of series [3]: Toxicity in Swiss albino mouse assessed as changes in fur sleekness at 677 to 2000 mg/kg, po for 14 days. The following applies: in vivo, 336 h. It counts as organism-based.
Series [4] in a line: Toxicity in Swiss albino mouse assessed as change in water and food consumption at 677 to 2000 mg/kg, po for 14 days. The following applies: in vivo, 336 h. It counts as organism-based.
A short description of series [5]: Toxicity in Swiss albino mouse assessed as change in body weight at 677 to 2000 mg/kg, po for 14 days. It counts as organism-based. The following applies: in vivo, 336 h.
Series [6] can be described thus: Toxicity in Swiss albino mouse assessed as heart damage at 677 to 2000 mg/kg, po treated for 14 days measured on 15th day post treatment. In kind it is organism-based. The following applies: in vivo, 336 h.
Series [7] is described as follows: Toxicity in Swiss albino mouse assessed as kidney damage at 677 to 2000 mg/kg, po treated for 14 days measured on 15th day post treatment. It counts as organism-based. To be noted: in vivo, 336 h.
Series [8] is described as follows: Toxicity in Swiss albino mouse assessed as liver damage at 677 to 2000 mg/kg, po treated for 14 days measured on 15th day post treatment. In kind it is organism-based. The following applies: in vivo, 336 h.
A short description of series [9]: Cmax in Wistar rat at 5 mg/kg, po administered as a single dose by HPLC analysis. In kind it is ADME, organism-based. Also noted: dose 5 mg/kg, route oral. To be noted: in vivo.
Series [10] in a line: Tmax in Wistar rat at 5 mg/kg, po administered as a single dose by HPLC analysis. In kind it is ADME, organism-based. The following applies: in vivo.
A short description of series [11]: AUC(0 to 8 hrs) in Wistar rat at 5 mg/kg, po administered as a single dose by HPLC analysis. It counts as ADME, organism-based. Also noted: time < 6 hr, dose 5 mg/kg, route oral. To be noted: in vivo.
Series [12] is described as follows: Terminal half life in Wistar rat at 5 mg/kg, po administered as a single dose by HPLC analysis. In kind it is ADME, organism-based. To be noted: in vivo, read-out: beta t1/2 (converted).
The subject of series [13] is Mus musculus. In words: Neuroprotective activity in Swiss albino mouse assessed as inhibition of scopolamine-induced elevation in MDA level in brain at 5 mg/kg, po administered 30 mins prior to scopolamine challenge administered for 9 days measured after 20 mins of compound incubation by TBARS assay relative to vehicle-treated control. In kind it is functional, organism-based.

The subject of series [14] is Mus musculus. Put plainly: Neuroprotective activity in Swiss albino mouse assessed as elevation of scopolamine-induced decrease in catalase level in brain at 5 mg/kg, po administered 30 mins prior to scopolamine challenge administered for 9 days measured after 1 min of compound incubation by spectrophotometrical analysis relative to vehicle-treated control. In kind it is functional, organism-based.

For a further series, the system named is Rattus norvegicus. In words: Neuroprotective activity in Wistar rat brain hippocampus assessed as increase in Abeta (1 to 42) insult-induced decrease in spontaneous alterations at 5 mg/kg, po administered for 15 days measured for last 5 days of treatment by Y Maze assay. In kind it is functional, organism-based.
Series [15] in a line: Permeability of the compound at 100 ug/ml incubated for 120 mins by PAMPA. In kind it is ADME. The following applies: read-out: Peff. In general terms: The PAMPA barrier holds no transporters, so it reflects passive diffusion.
Series [16] concerns the target T1, Acetylcholinesterase. To be noted: at 10 µM.
Description: Inhibition of human erythrocyte AChE-induced Abeta (1 to 42) aggregation at 10 uM incubated for 24 hrs by thioflavin-T fluorescence assay
Series [17] is described as follows: in vitro. The following applies: human, SH-SY5Y cells.
Description: Cytotoxicity against human SH-SY5Y cells assessed as cell viability at 40 uM after 24 hrs by MTT assay
Series [18] can be described thus: in vitro. The following applies: human, SH-SY5Y cells. The source holds these as a separate data set.
Description: Cytotoxicity against human SH-SY5Y cells assessed as cell viability at 80 uM after 24 hrs by MTT assay
For series [19], the target named is T1, Acetylcholinesterase. Put plainly: Inhibition of human erythrocyte AChE using ATCI as substrate preincubated for 30 mins followed by substrate addition measured after 30 mins by Ellman assay.

A word on the IC50: it is the concentration needed to halve the response being measured. Low values mean higher potency, high ones lower potency. As usually defined, the inhibition is the drop in the measured response relative to a control, in per cent. For orientation: Cmax means the maximum level reached in the sampled fluid or tissue. A word on the Tmax: it is the time at which the peak concentration occurs. One may read the AUC(0-t) as exposure summed from dosing to a finite time, without extrapolation to infinity. Lower therefore signals low exposure. What is called viability is the share of living cells, or the viability signal relative to a control. A high value points to less harm to the cells.

Molecules are shown by their SMILES. The source made the active and inactive calls. The rule behind the calls is not given here.

T1 sequence (P22303 whole entry): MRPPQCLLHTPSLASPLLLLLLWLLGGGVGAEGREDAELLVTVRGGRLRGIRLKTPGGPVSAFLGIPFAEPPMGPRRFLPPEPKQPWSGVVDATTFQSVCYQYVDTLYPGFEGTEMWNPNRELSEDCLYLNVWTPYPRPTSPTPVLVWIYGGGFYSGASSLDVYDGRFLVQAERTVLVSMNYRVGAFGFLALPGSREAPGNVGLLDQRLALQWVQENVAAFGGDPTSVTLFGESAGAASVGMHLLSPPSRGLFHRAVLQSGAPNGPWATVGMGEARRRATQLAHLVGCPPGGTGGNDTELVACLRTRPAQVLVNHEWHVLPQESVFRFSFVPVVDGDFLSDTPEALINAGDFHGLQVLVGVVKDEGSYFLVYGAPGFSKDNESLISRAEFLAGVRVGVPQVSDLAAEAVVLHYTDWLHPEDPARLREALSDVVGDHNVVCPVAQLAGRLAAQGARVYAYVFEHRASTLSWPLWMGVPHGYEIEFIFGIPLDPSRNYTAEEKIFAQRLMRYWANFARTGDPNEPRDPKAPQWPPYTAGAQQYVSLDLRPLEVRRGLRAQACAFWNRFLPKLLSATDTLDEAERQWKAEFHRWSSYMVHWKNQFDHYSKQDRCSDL
Cholinesterase, sequence (P81908 whole entry): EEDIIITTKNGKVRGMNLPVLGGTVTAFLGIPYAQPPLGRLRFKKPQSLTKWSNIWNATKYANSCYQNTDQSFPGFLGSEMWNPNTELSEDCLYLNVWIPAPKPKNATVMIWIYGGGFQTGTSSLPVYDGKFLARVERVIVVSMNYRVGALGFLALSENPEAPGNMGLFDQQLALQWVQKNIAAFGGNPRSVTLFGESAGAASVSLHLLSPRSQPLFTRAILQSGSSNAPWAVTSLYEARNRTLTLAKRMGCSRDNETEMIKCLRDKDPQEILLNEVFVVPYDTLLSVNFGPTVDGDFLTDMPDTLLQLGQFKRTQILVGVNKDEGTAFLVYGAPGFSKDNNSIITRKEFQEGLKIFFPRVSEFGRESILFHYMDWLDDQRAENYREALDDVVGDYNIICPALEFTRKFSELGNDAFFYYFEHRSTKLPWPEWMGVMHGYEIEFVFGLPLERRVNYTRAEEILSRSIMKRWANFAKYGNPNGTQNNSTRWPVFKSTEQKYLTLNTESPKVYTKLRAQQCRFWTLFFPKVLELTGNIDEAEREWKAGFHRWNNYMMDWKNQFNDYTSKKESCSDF

At Cholinesterase, `Cc1ccc(-c2nc(NCC3CCN(Cc4cc(F)cc(F)c4)CC3)sc2-c2ccc(C)cc2)cc1` returned an IC50 of 1840 nM. Also, the inhibition result on Acetylcholinesterase [1] was “Active”. For the same compound, the Activity entry in series [2], in series [3], in series [4], in [5], in series [6] and in series [7] was “Non-Toxic” throughout. Further, the Activity entry in [8] is “Non-Toxic”. The compound also returned a Cmax in series [9] of 21.2 ng/mL. For the same compound, the Tmax in series [10] was 3.66 h. Besides, the exposure AUC(0-t) at 6 h in [11] was 587 ng·h/mL. For the same compound, the half-life in series [12] is 19.4 h. The result with Mus musculus [13], with Mus musculus [14] and in the series on Rattus norvegicus was Active. Moreover, the Papp at 2 h, 100 ug/ml in series [15] is 14.5 ×10⁻⁶ cm/s. The same compound gave an inhibition at Acetylcholinesterase [16] of 27.6%. The compound also came in with a viability at 24 h, 40 µM in “in vitro [17]” of 95.2%. In addition, the viability at 24 h, 80 µM in “in vitro [18]” worked out at 91.3%.

For the compound `Cc1ccc(-c2nc(NCC3CCN(Cc4ccccc4C(F)(F)F)CC3)sc2-c2ccc(C)cc2)cc1`, the half-inhibitory concentration (IC50) against Acetylcholinesterase [19] is 400 nM; against Cholinesterase, 2200 nM. Besides, the Papp at 2 h, 100 ug/ml in series [15] was found to be 12.8 ×10⁻⁶ cm/s. The compound further came in with an inhibition at Acetylcholinesterase [16] of 26.4%. Besides, the viability at 24 h, 40 µM in the series “in vitro [17]” was determined as 93.5%. Besides, in “in vitro [18]”, the viability at 24 h, 80 µM is 91.7%.

On to `O=C(Nc1nc(-c2ccc(Cl)cc2)c(-c2ccc(Cl)cc2)s1)C1CCN(Cc2cccc(F)c2)CC1`, for which the IC50 against Acetylcholinesterase [19] came out at 650 nM; at Cholinesterase, 720 nM. Also, the Papp at 2 h, 100 ug/ml in [15] worked out at 15.9 ×10⁻⁶ cm/s. At Acetylcholinesterase [16], this compound gave an inhibition of 18.8%. In addition, the viability at 24 h, 40 µM in “in vitro [17]” turned out to be 93.6%. The compound further displayed a viability at 24 h, 80 µM in the series “in vitro [18]” of 91.1%.

Consider `Fc1ccc(CN2CCC(Nc3nc(-c4ccc(Cl)cc4)c(-c4ccc(Cl)cc4)s3)CC2)c(Cl)c1`, for which the concentration for half-maximal inhibition (IC50) against Acetylcholinesterase [19] came out at 370 nM; against Cholinesterase, 1970 nM. Further, the Papp at 2 h, 100 ug/ml in [15] was determined as 8.4 ×10⁻⁶ cm/s. At Acetylcholinesterase [16], this compound yielded an inhibition of 27.5%. Moreover, the viability at 24 h, 40 µM in “in vitro [17]” came to 94.2%. The compound further displayed a viability at 24 h, 80 µM in “in vitro [18]” of 92.5%.

Take `Fc1ccc(CN2CCC(CNc3nc(-c4ccc(Cl)cc4)c(-c4ccc(Cl)cc4)s3)CC2)c(Cl)c1`: the values for the half-inhibitory concentration (IC50) against Acetylcholinesterase [19] and on Cholinesterase were 520 nM and 740 nM, respectively. Besides, the Papp at 2 h, 100 ug/ml in [15] is 13.2 ×10⁻⁶ cm/s. At Acetylcholinesterase [16], this compound returned an inhibition of 15%. In addition, the viability at 24 h, 40 µM in the series “in vitro [17]” was determined as 92.7%. In the series “in vitro [18]”, the viability at 24 h, 80 µM was determined as 88.9%.

For `COc1ccc(-c2nc(NC(=O)C3CCN(Cc4ccccc4C(F)(F)F)CC3)sc2-c2ccc(OC)cc2)cc1`, the concentration for half-maximal inhibition (IC50) worked out at 680 nM against Acetylcholinesterase [19] and 1920 nM against Cholinesterase. In addition, the Papp at 2 h, 100 ug/ml in series [15] was determined as 12.3 ×10⁻⁶ cm/s. On Acetylcholinesterase [16], the inhibition came out at 14.5%. The compound also displayed a viability at 24 h, 40 µM in the series “in vitro [17]” of 92.4%. In “in vitro [18]”, the viability at 24 h, 80 µM was 93.1%.

Turning to `COc1ccc(-c2nc(NC3CCN(Cc4ccc(C)cc4)CC3)sc2-c2ccc(OC)cc2)cc1`, the IC50 against Acetylcholinesterase [19] turned out to be 830 nM; at Cholinesterase it was 2250 nM. In addition, in series [15], the Papp at 2 h, 100 ug/ml was 9.6 ×10⁻⁶ cm/s. Also, the inhibition at Acetylcholinesterase [16] turned out to be 19.2%. For the same compound, the viability at 24 h, 40 µM in the series “in vitro [17]” stood at 95.4%. Besides, the viability at 24 h, 80 µM in the series “in vitro [18]” was found to be 89.5%.

Take `Cc1ccc(-c2nc(NCC3CCN(Cc4ccc(F)cc4)CC3)sc2-c2ccc(C)cc2)cc1`: the concentration for half-maximal inhibition (IC50) against Acetylcholinesterase [19] stood at 370 nM; against Cholinesterase, 1950 nM. Besides, the Papp at 2 h, 100 ug/ml in [15] worked out at 10.1 ×10⁻⁶ cm/s. Further, the inhibition against Acetylcholinesterase [16] came out at 25.8%. For the same compound, the viability at 24 h, 40 µM in the series “in vitro [17]” was found to be 91.8%. Further, the viability at 24 h, 80 µM in “in vitro [18]” came to 89.7%.

As for `COc1ccc(-c2nc(NC(=O)C3CCN(Cc4c(F)cccc4Cl)CC3)sc2-c2ccc(OC)cc2)cc1`, the concentration for half-maximal inhibition (IC50) on Acetylcholinesterase [19] is 410 nM; against Cholinesterase, 1570 nM. In series [15], the Papp at 2 h, 100 ug/ml is 8.2 ×10⁻⁶ cm/s. The compound further yielded an inhibition on Acetylcholinesterase [16] of 16.6%. Further, the viability at 24 h, 40 µM in the series “in vitro [17]” amounted to 92.9%. This compound registered a viability at 24 h, 80 µM in “in vitro [18]” of 91.6%.

As for `Cc1ccccc1CN1CCC(CNc2nc(-c3ccc(Cl)cc3)c(-c3ccc(Cl)cc3)s2)CC1`, the figures for the IC50 against Acetylcholinesterase [19] and on Cholinesterase were 870 nM and 1430 nM, respectively. In addition, the Papp at 2 h, 100 ug/ml in series [15] turned out to be 8.8 ×10⁻⁶ cm/s. The compound also displayed an inhibition against Acetylcholinesterase [16] of 23.3%. The viability at 24 h, 40 µM in the series “in vitro [17]” was determined as 95.4%. The compound also came in with a viability at 24 h, 80 µM in “in vitro [18]” of 90.9%.

On to `COc1ccc(-c2nc(NCC3CCN(Cc4ccccc4C(F)(F)F)CC3)sc2-c2ccc(OC)cc2)cc1`, for which the values for the half-inhibitory concentration (IC50) at Acetylcholinesterase [19] and against Cholinesterase were 690 nM and 8010 nM, respectively. Further, the Papp at 2 h, 100 ug/ml in [15] was determined as 8.4 ×10⁻⁶ cm/s. Also, the inhibition against Acetylcholinesterase [16] is 20.6%. The viability at 24 h, 40 µM in the series “in vitro [17]” worked out at 94.2%. The viability at 24 h, 80 µM in the series “in vitro [18]” is 90.1%.

Consider `Cc1ccc(-c2nc(NCC3CCN(Cc4ccccc4C)CC3)sc2-c2ccc(C)cc2)cc1`, for which the IC50 against Acetylcholinesterase [19] stood at 500 nM; on Cholinesterase, 2510 nM. The Papp at 2 h, 100 ug/ml in series [15] is 10.6 ×10⁻⁶ cm/s. On Acetylcholinesterase [16], this compound came in with an inhibition of 16.2%. The compound further had a viability at 24 h, 40 µM in “in vitro [17]” of 91.4%. The same compound showed a viability at 24 h, 80 µM in the series “in vitro [18]” of 90.1%.

The values above are taken from ChEMBL document CHEMBL4477206, “Benzylpiperidine-Linked Diarylthiazoles as Potential Anti-Alzheimer's Agents: Synthesis and Biological Evaluation” (J Med Chem, 2016).
